In the NIST ThermoML archive (doi:10.1016/j.jct.2006.07.022):
Numbers after ± are expanded uncertainties.

Experiments:
[1] = refractive index (Na D-line) (dimensionless); conditions: 298.15 K; 101.33 kPa; Liquid; Standard Abbe refractometry
[2] = xn = mol fraction of the nth substance listed; conditions: 101 kPa, Liquid

Structure (SMILES): c1ccccc1 [benzene]
- refractive index [1]: 1.5009 ± 0.0007

Structure (SMILES): c1ccccc1 [benzene] + CN(C)C=O
- mass density ([2]; 293.15 K, x1 = 1): 878.96 ± 0.33 kg/m3
- mass density ([2]; 303.15 K, x1 = 1): 868.21 ± 0.34 kg/m3
- mass density ([2]; 313.15 K, x1 = 1): 857.4 ± 0.36 kg/m3
- mass density ([2]; 323.15 K, x1 = 1): 846.55 ± 0.38 kg/m3
- mass density ([2]; 333.15 K, x1 = 1): 835.66 ± 0.39 kg/m3
- mass density ([2]; 343.15 K, x1 = 1): 824.71 ± 0.41 kg/m3

Structure (SMILES): CN(C)C=O [dimethylformamide]
- refractive index [1]: 1.4307 ± 0.0007

Structure (SMILES): CN(C)C=O [dimethylformamide] + CCc1ccccc1
- mass density ([2]; 293.15 K, x2 = 0): 948.58 ± 0.25 kg/m3
- mass density ([2]; 303.15 K, x2 = 0): 939.46 ± 0.26 kg/m3
- mass density ([2]; 313.15 K, x2 = 0): 930.12 ± 0.28 kg/m3
- mass density ([2]; 323.15 K, x2 = 0): 920.55 ± 0.29 kg/m3
- mass density ([2]; 333.15 K, x2 = 0): 910.75 ± 0.3 kg/m3
- mass density ([2]; 343.15 K, x2 = 0): 900.73 ± 0.32 kg/m3
- mass density ([2]; 353.15 K, x2 = 0): 890.48 ± 0.34 kg/m3

Structure (SMILES): CCc1ccccc1 [ethylbenzene]
- refractive index [1]: 1.4962 ± 0.0008

Structure (SMILES): Cc1ccccc1 [toluene]
- refractive index [1]: 1.4965 ± 0.0008

Structure (SMILES): Cc1ccccc1 [toluene] + CN(C)C=O
- mass density ([2]; 293.15 K, x1 = 1): 866.8 ± 0.94 kg/m3
- mass density ([2]; 303.15 K, x1 = 1): 857.53 ± 0.94 kg/m3
- mass density ([2]; 313.15 K, x1 = 1): 848.23 ± 0.94 kg/m3
- mass density ([2]; 323.15 K, x1 = 1): 838.91 ± 0.94 kg/m3
- mass density ([2]; 333.15 K, x1 = 1): 829.55 ± 0.95 kg/m3
- mass density ([2]; 343.15 K, x1 = 1): 820.17 ± 0.95 kg/m3
- mass density ([2]; 353.15 K, x1 = 1): 810.77 ± 0.95 kg/m3
